Measurements reported in ChEMBL document CHEMBL3734727, “Metabolomics-Driven Discovery of a Prenylated Isatin Antibiotic Produced by Streptomyces Species MBT28” (2015).
Calls of active or inactive are those of the source. No cut-off for these calls is given here.

Legend:
Staphylococcus aureus = assay: Antibacterial activity against Staphylococcus aureus; format: functional, organism-based
Escherichia coli = assay: Antibacterial activity against Escherichia coli K-12; format: functional, organism-based
Bacillus subtilis = assay: Antibacterial activity against Bacillus subtilis assessed as growth inhibition by microtiter plate-based MIC test

MIC (Bacillus subtilis): 25 µg/mL
Compound: CC(C)=CCc1cccc2c1NC(=O)C2=O
Activity (Staphylococcus aureus): inactive | Activity (Escherichia coli): inactive
